Measured values published in patent US20080200448A1, “New Pyridine Analogues VIII 518” (ASTRAZENECA AB, priority 2007, published 2008).

Target: T1, P2Y12 receptor (Homo sapiens, UniProt Q9H244)
T1 construct: expressed in transfected cells; host or cells: CHO cells (membrane preparation)
Experiment: Functional inhibition of 2-Me-S-ADP induced P2Y12 signalling (35S-GTPγS binding, cell membranes)
Type: biochemical
Details: 35S-GTPγS assay, membranes, EC80 concentration of 2-methyl-thio-adenosine diphosphate, 30° C. for 45 min; read-out: GTPγS (IC50 μM)
Experimental: Functional inhibition of- the P2Y12 receptor can be measured by in vitro assays using cell membranes from P2Y12 transfected CHO-cells, the methodology is indicated below.
Functional inhibition of 2-Me-S-ADP induced P2Y12 signalling: 5 μg of membranes were diluted in 200 μl of 200 mM NaCl, 1 mM MgCl2, 50 mM HEPES (pH 7.4), 0.01% BSA, 30 μg/ml saponin and 10 μM GDP. To this was added an EC80 concentration of agonist (2-methyl-thio-adenosine diphosphate), the required concentration of test compound and 0.1 μCi ^35S-GTPγS. The reaction was allowed to proceed at 30° C. for 45 min. Samples were then transferred on to GF/B filters using a cell harvester and washed with wash buffer (50 mM Tris (pH 7.4), 5 mM MgCl2, 50 mM NaCl). Filters were then covered with scintilant and counted for the amount of ^35S-GTPγS retained by the filter. Maximum activity was that determined in the presence of the agonist and minimum activity in the absence of the agonist following subtraction of the value determined for non-specific activity. The effect of compounds at various concentrations was plotted according to the equation
y=A+((B−A)/(1+((C/x)̂D)))
and IC50 estimated where A is the bottom plateau of the curve i.e. the final minimum y value B is the top of the plateau of the curve i.e. the final maximum y value C is the x value at the middle of the curve. This represents the log EC50 value when A+B=100 D is the slope factor. x is the original known x values. Y is the original known y values.

T1 sequence (Q9H244 whole entry): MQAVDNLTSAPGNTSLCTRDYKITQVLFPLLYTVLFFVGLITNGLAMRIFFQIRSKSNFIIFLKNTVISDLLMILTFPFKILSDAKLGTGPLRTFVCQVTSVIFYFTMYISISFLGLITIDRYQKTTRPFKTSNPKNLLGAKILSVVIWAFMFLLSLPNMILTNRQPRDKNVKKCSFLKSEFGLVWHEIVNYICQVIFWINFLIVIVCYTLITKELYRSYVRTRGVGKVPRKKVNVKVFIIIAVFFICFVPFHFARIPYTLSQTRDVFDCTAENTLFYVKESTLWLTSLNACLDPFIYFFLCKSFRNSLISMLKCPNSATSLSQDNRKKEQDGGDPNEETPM

Row | SMILES | IC50 [µM]
1 | CCOC(=O)c1cc(C#N)c(N2CCC(C(=O)NS(=O)(=O)Cc3ccccc3)CC2)nc1CSCc1nccn1C [Example 116, Ethyl 6-{4-[(benzylsulfonyl)carbamoyl]piperidin-1-yl}-5-cyano-2-({[(1-methyl-1H-imidazol-2-yl)methyl]thio}methyl)nicotinate] | 1.05
2 | CCOC(=O)CSc1nc(N2CCC(C(=O)NS(=O)(=O)Cc3ccc(F)cc3Cl)CC2)c(C#N)cc1C(=O)OCC [Example 108, Ethyl 6-(4-{[(2-chloro-4-fluorobenzyl)sulfonyl]carbamoyl}piperidin-1-yl)-5-cyano-2-[(2-ethoxy-2-oxoethyl)thio]nicotinate] | 0.072
3 | CCOC(=O)c1cc(C#N)c(N2CCC(C(=O)NS(=O)(=O)Cc3ccc(SC(F)(F)F)cc3)CC2)nc1CN1CCCCC1=O [Example 101, Ethyl 5-cyano-2-[(2-oxopiperidin-1-yl)methyl]-6-{4-[({4-[(trifluoromethyl)thio]benzyl}sulfonyl)carbamoyl]piperidin-1-yl}nicotinate] | 0.166
4 | CCOC(=O)c1cc(C#N)c(N2CC(C(=O)NS(=O)(=O)Cc3ccccc3)C2)nc1CSCCNC(C)=O [Example 32, Ethyl 2-{[(2-acetamidoethyl)thio]methyl}-6-{3-[(benzylsulfonyl)carbamoyl]azetidin-1-yl}-5-cyanonicotinate] | 0.081
5 | CCOC(=O)c1cc(C#N)c(N2CCC(C(=O)NS(=O)(=O)Cc3ccccc3)CC2)nc1OCCn1cccc1 [Example 113, Ethyl 6-{4-[(benzylsulfonyl)carbamoyl]piperidin-1-yl}-5-cyano-2-[2-(1H-pyrrol-1-yl)ethoxy]nicotinate] | 0.05
6 | CCOC(=O)c1cc(C#N)c(N2CCC(C(=O)NS(=O)(=O)CC3CCC(C)CC3)CC2)nc1CN1CCCC1=O (centres unmarked) [Example 37, Ethyl 5-cyano-6-[4-({[(4-methylcyclohexyl)methyl]sulfonyl}carbamoyl)piperidin-1-yl]-2-[(2-oxopyrrolidin-1-yl)methyl]nicotinate] | 0.03
7 | CCOC(=O)c1cc(C#N)c(N2CCC(C(=O)NS(=O)(=O)N(C)c3ccc(F)cc3)CC2)nc1CN1CCCC1=O [Example 76, Ethyl 5-cyano-6-[4-({[(4-fluorophenyl)(methyl)amino]sulfonyl}carbamoyl)piperidin-1-yl]-2-[(2-oxopyrrolidin-1-yl)methyl]nicotinate] | 0.0073
8 | CCOC(=O)c1ccc(N2CCC(C(=O)NS(=O)(=O)Cc3ccccc3)CC2)nc1CN1CCCC1=O [Example 86, Ethyl 6-{4-[(benzylsulfonyl)carbamoyl]piperidin-1-yl}-2-[(2-oxopyrrolidin-1-yl)methyl]nicotinate] | 0.103
9 | CCOC(=O)c1cc(C#N)c(N2CCC(C(=O)NS(=O)(=O)Cc3ccc(F)cc3Cl)CC2)nc1CN1CCCC1=O [Example 43, Ethyl 6-(4-{[(2-chloro-4-fluorobenzyl)sulfonyl]carbamoyl}piperidin-1-yl)-5-cyano-2-[(2-oxopyrrolidin-1-yl)methyl]nicotinate] | 0.018
10 | CC(C)OC(=O)c1cc(C#N)c(N2CCC(C(=O)NS(=O)(=O)CC3CCOCC3)CC2)nc1CN1CCCC1=O [Example 73, Isopropyl 5-cyano-2-[(2-oxopyrrolidin-1-yl)methyl]-6-(4-{[(tetrahydro-2H-pyran-4-ylmethyl)sulfonyl]carbamoyl}piperidin-1-yl)nicotinate] | > 3.3
11 | CCOC(=O)c1cc(C#N)c(N2CCC(C(=O)NS(=O)(=O)Cc3ccc(Cl)cc3F)CC2)nc1CN1CCCC1=O [Example 44, Ethyl 6-(4-{[(4-chloro-2-fluorobenzyl)sulfonyl]carbamoyl}piperidin-1-yl)-5-cyano-2-[(2-oxopyrrolidin-1-yl)methyl]nicotinate] | 0.01
12 | CCOC(=O)c1cc(C#N)c(N2CCC(C(=O)NS(=O)(=O)Cc3ccccc3)CC2)nc1CN1CCCC1 [Example 3, Ethyl 6-{4-[(benzylsulfonyl)carbamoyl]piperidin-1-yl}-5-cyano-2-(pyrrolidin-1-ylmethyl)nicotinate] | 0.545
13 | CCOC(=O)COc1nc(N2CCC(C(=O)NS(=O)(=O)Cc3ccccc3)CC2)c(C#N)cc1C(=O)OCC [Example 8, Ethyl 6-{4-[(benzylsulfonyl)carbamoyl]piperidin-1-yl}-5-cyano-2-(2-ethoxy-2-oxoethoxy)nicotinate] | 0.039
14 | CCOC(=O)c1cc(C#N)c(N2CC(C(=O)NS(=O)(=O)Cc3ccccc3)C2)nc1CSCCO [Example 31, Ethyl 6-{3-[(benzylsulfonyl)carbamoyl]azetidin-1-yl}-5-cyano-2-{[(2-hydroxyethyl)thio]methyl}nicotinate] | 0.066
15 | CCOC(=O)c1cc(C#N)c(N2CCC(C(=O)NS(=O)(=O)Cc3ccccc3)CC2)nc1OCCC#N [Example 17, Ethyl 6-{4-[(benzylsulfonyl)carbamoyl]piperidin-1-yl}-5-cyano-2-(2-cyanoethoxy)nicotinate] | 0.027
16 | CCOC(=O)c1cc(C#N)c(N2CCC(C(=O)NS(=O)(=O)Cc3ccccc3)CC2)nc1CSCC [Example 27, Ethyl 6-{4-[(benzylsulfonyl)carbamoyl]piperidin-1-yl}-5-cyano-2-[(ethylthio)methyl]nicotinate] | 0.057
17 | CC(C)OC(=O)c1cc(C#N)c(N2CCC(C(=O)NS(=O)(=O)Nc3ccc(F)cc3)CC2)nc1CN1CCCC1=O [Example 80, Isopropyl 5-cyano-6-[4-({[(4-fluorophenyl)amino]sulfonyl}carbamoyl)piperidin-1-yl]-2-[(2-oxopyrrolidin-1-yl)methyl]nicotinate] | 0.038
18 | CCOC(=O)CSCc1nc(N2CCC(C(=O)NS(=O)(=O)Cc3ccccc3)CC2)c(C#N)cc1C(=O)OCC [Example 122, Ethyl 6-{4-[(benzylsulfonyl)carbamoyl]piperidin-1-yl}-5-cyano-2-{[(2-ethoxy-2-oxoethyl)thio]methyl}nicotinate] | 0.077
19 | CCOC(=O)c1cc(Cl)c(N2CCC(C(=O)NS(=O)(=O)Cc3ccc(F)cc3F)CC2)nc1CN1CCCC1=O [Example 89, Ethyl 5-chloro-6-(4-{[(2,4-difluorobenzyl)sulfonyl]carbamoyl}piperidin-1-yl)-2-[(2-oxopyrrolidin-1-yl)methyl]nicotinate] | 0.033
20 | CCOC(=O)c1cc(Cl)c(N2CCC(C(=O)NS(=O)(=O)Cc3ccc(OC)cc3)CC2)nc1CN1CCCC1=O [Example 88, Ethyl 5-chloro-6-(4-{[(4-methoxybenzyl)sulfonyl]carbamoyl}piperidin-1-yl)-2-[(2-oxopyrrolidin-1-yl)methyl]nicotinate] | 0.081
21 | CCOC(=O)c1cc(C#N)c(N2CCC(C(=O)NS(=O)(=O)Cc3ccccc3)CC2)nc1CSCCC(=O)OC [Example 119, Ethyl 6-{4-[(benzylsulfonyl)carbamoyl]piperidin-1-yl}-5-cyano-2-{[(3-methoxy-3-oxopropyl)thio]methyl}nicotinate] | 0.042
22 | CCOC(=O)c1cc(C#N)c(N2CCC(C(=O)NS(=O)(=O)Cc3ccccc3)CC2)nc1SCCNC(C)=O [Example 21, Ethyl 2-[(2-acetamidoethyl)thio]-6-{4-[(benzylsulfonyl)carbamoyl]piperidin-1-yl}-5-cyanonicotinate] | 0.01
23 | CCCOC(=O)c1cc(F)c(N2CCC(C(=O)NS(=O)(=O)Cc3ccccc3)CC2)nc1CN1CCCC1=O [Example 130, Propyl 6-{4-[(benzylsulfonyl)carbamoyl]piperidin-1-yl}-5-fluoro-2-[(2-oxopyrrolidin-1-yl)methyl]nicotinate] | 0.122
